Reference: patent publication US7473705B2, “Hexafluoroisopropanol substituted ether derivatives” (Hoffmann-LA Roche Inc., priority 2004, dated 2009)

Experiments:
human LXR alpha = biological target: T1, human LXR alpha (Homo sapiens, UniProt Q13133); experiment: Radioligand binding assay (scintillation proximity), LXR alpha; details: GST-LXR alpha-LBD on SPA beads, radioligand displacement; read-out: LXRalpha Binding IC50
T1 construct: human LXR alpha (aa 164 to 447); made in house; host or cells: E. coli BL21(pLysS)
T1 sequence (Q13133 164-447): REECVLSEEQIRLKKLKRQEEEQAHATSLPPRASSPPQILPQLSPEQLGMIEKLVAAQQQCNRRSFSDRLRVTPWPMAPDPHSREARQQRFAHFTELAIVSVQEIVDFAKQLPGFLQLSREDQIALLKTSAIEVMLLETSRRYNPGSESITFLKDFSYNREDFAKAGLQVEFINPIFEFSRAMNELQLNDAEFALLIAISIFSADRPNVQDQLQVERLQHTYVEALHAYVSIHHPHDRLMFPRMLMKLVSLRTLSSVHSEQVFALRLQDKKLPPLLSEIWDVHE
Excerpt: (§1) Mammalian expression vectors were constructed to express full-length human LXR alpha and LXR beta. Bacterial expression vectors were constructed to produce glutathione-s-transferase (GST) fused to the ligand binding domains (LBD) of human LXR alpha (aa 164 to 447) and human LXR beta (aa 155 to 460). To accomplish this, the portions of the sequences encoding the LBDs were amplified from full-length clones by PCR and then subcloned into the plasmid vectors. Final clones were verified by DNA sequence analysis (Willy et al., Genes Dev. 1995, 9:1033-45; Song et al., Proc Natl Acad Sci USA. 1994, 91:10809-13).
(§2) Induction, expression, and purification of GST-LBD fusion proteins were performed in E. coli strain BL21(pLysS) cells by standard methods (Ref: Current Protocols in Molecular Biology, Wiley Press, edited by Ausubel et al).
(§3) LXR alpha and LXR beta receptor binding were assayed in buffer consisting of 50 mM HEPES, pH 7.4, 10 mM NaCl, 5 mM MgCl2. For each 96-well reaction, 500 ng of GST-LXR alpha-LBD or 700 ng of GST-LXR beta-LBD fusion proteins were bound to 80 μg or 40 μg SPA beads (Pharmacia Amersham) respectively, in a final volume of 50 μl by shaking. The resulting slurry was incubated for 1 h at RT and centrifuged for 2 min at 1300×g. The supernatant containing unbound protein was removed, and the semi-dry pellet containing the receptor-coated beads was re-suspended in 50 μl of buffer. Radioligand (eg. 100,000 dpm of (N-(2,2,2-trifluoroethyl)-N-[4-(2,2,2-trifluoro-1-hydroxy-1-trifluoromethylethyl)-phenyl]-benzenesulfonamide)) was added, and the reaction incubated at RT for 1 h in the presence of test compounds, and then scintillation proximity counting was performed. All binding assays were performed in 96-well plates and the amount of bound ligand was measured on a Packard TopCount using OptiPlates (Packard). Dose response curves were measured within a range of concentration from 10^−10 M to 10^−4 M.

human LXR beta = biological target: T2, human LXR beta (Homo sapiens, UniProt P55055); experiment: Radioligand binding assay (scintillation proximity), LXR beta; details: GST-LXR beta-LBD on SPA beads, radioligand displacement; read-out: LXRbeta Binding IC50
T2 construct: human LXR beta (aa 155 to 460); made in house; host or cells: E. coli BL21(pLysS)
T2 sequence (P55055 155-460): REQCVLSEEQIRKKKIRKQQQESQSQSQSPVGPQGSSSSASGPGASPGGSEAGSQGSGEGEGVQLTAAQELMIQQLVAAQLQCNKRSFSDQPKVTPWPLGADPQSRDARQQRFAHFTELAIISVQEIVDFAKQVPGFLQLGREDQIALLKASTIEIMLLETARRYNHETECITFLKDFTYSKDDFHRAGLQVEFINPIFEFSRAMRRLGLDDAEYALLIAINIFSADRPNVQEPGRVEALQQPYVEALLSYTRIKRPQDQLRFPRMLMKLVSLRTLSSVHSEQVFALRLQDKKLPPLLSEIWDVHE
Excerpt: as §1, §2, §3

## COC(=O)c1ccc(OC(COc2ccc(C(O)(C(F)(F)F)C(F)(F)F)cc2)c2ccccc2)cc1 (racemic) [Example 11, rac 4-{1-Phenyl-2-[4-(2,2,2-trifluoro-1-hydroxy-1-trifluoromethyl-ethyl)-phenoxy]-ethoxy}-benzoic acid methyl ester]
Human LXR alpha
  IC50: 93 nM
Human LXR beta
  IC50: 14 nM

## OC(c1ccc(OCc2ccccc2)c(Cl)c1)(C(F)(F)F)C(F)(F)F [Example 13, 2-(4-Benzyloxy-3-chloro-phenyl)-1,1,1,3,3,3-hexafluoro-propan-2-ol]
Human LXR alpha
  IC50: 237 nM
Human LXR beta
  IC50: 236 nM

## Cc1oc(-c2cccc(Cl)c2)nc1COc1ccc(C(O)(C(F)(F)F)C(F)(F)F)cc1Cl [Example 57, 2-{3-Chloro-4-[2-(3-chloro-phenyl)-5-methyl-oxazol-4-ylmethoxy]-phenyl}-1,1,1,3,3,3-hexafluoro-propan-2-ol]
Human LXR alpha
  IC50: 33 nM
Human LXR beta
  IC50: 22.7 nM
